Patent US7951385B2, “Probiotic strain and antimicrobial peptide derived therefrom” (Cipla Medpro Research and Development (Pty) Ltd., priority 2006, dated 2011)
Bridge positions count the residues as written; N and C are the ends. Square brackets hold non-standard residues; d marks the D form. Peptide text beside a SMILES is read from it. * marks the point of attachment. Ileψ(thiazoline)Cys = CC[C@H](C)[C@H](N)C1=N[C@H](C(=O)*)CS1; dOrn = NCCC[C@@H](N)C(=O)O

What was measured:
strain ST4SA [1] = test: Antibiotic resistance of strain ST4SA (antibiotic discs, Oxoid); type: cell-based, Enterococcus mundtii
[2] = tested on: Pseudomonas sp. isolated from infected middle-ear fluid; test: Activity on paper disks and comparison with antibiotics (inhibition zones); type: cell-based; settings: Ampicillin 10 μg, Bacitracin 10 units, Chloramphenicol 30 μg, Erythromycin 15 μg, Tetracycline 30 μg, peptide on paper disk
Experimental: Activity was tested against a Pseudomonas sp. isolated from infected middle-ear fluid.

strain ST4SA [3] = test: Resistance of E. mundtii ST4 against antibiotics and anti-inflammatory drugs; type: cell-based, Enterococcus mundtii; settings: Ibuprofen 5, Aspirin 5, Promoxil 100, Cipadur 50, Cefasyn 100, Roxibidd 30, Doximal 20, Ciploxx 100, Utin 80, Rheugesic 4, Coxflam 1.5, K-fenak 5, Preflam 3 mg/ml
strain ST4SA [4] = test: Growth of strain ST4SA in the presence of TMP-SMX and Metronidazole; type: cell-based, Enterococcus mundtii; settings: for Number of viable cells of strain ST4SA: NAN Palargon, 18 h, 37° C., control 1 × 10^8
Experimental: Children with HIV/AIDS are treated with Trimethoprim-sulfamethoxazole (TMP-SMX) and/or Metronidazole to prevent diarrhea.

[5] = tested on: Lactobacillus sakei DSM 20017; test: Blocking of the Lipid II target site with vancomycin; type: cell-based; settings: L. sakei DSM 20017, FIG. 26
Source text: To test this hypothesis, the Lipid II target site of Lactobacillus sakei DSM 20017 (sensitive to peptide ST 4SA) was blocked with vancomycin (see schematic presentation, FIG. 26). Vancomycin adheres to the amino acid side chain of the Lipid II molecule, which would, theoretically, prevent peptide ST4SA from binding to the same site (that is if Lipid II acts as receptor). […] The fact that peptide ST4SA binds to more than one anchoring site on the sensitive cell may explain why it has such a broad spectrum of antimicrobial activity (inhibitory to Gram-positive and Gram-negative bacteria).

[6] = Pseudomonas, read-out: Diameter of inhibition zones

Row | Molecule | Inhibition zone of antibiotic on ST4 (strain ST4SA [1]) | Resistance of strain ST4SA to antibiotic (strain ST4SA [1]) | further results
1 | CC1(C)S[C@@H]2[C@H](NC(=O)[C@H](N)c3ccccc3)C(=O)N2[C@H]1C(=O)O [Ampicillin] | +++ (+++ = inhibition zone, diameter larger than 17 mm) |  | zone of inhibition at 10 µg/disc [2, 6]: 24 mm
2 | CC(=O)Oc1ccccc1C(=O)O [Aspirin] |  |  | Inhibition zone of medicament on Strain ST4SA (strain ST4SA [3]): + (+ = diameters between 1 mm and 11 mm)
3 | CC[C@H](C)[C@H](N)C1=N[C@H](C(=O)N[C@@H](CC(C)C)C(=O)N[C@H](CCC(=O)O)C(=O)N[C@H](C(=O)N[C@H]2CCCCNC(=O)[C@H](CC(N)=O)NC(=O)[C@@H](CC(=O)O)NC(=O)[C@H](Cc3cnc[nH]3)NC(=O)[C@@H](Cc3ccccc3)NC(=O)[C@H]([C@@H](C)CC)NC(=O)[C@@H](CCCN)NC2=O)[C@@H](C)CC)CS1 [Bacitracin] ({Ileψ(thiazoline)Cys}-L[dE]IK[dOrn]I[dF]H[dD]N; lactam 4-C) | ++ (++ = inhibition zone, diameter 12 to 16 mm) |  | Diameter of inhibition zones [2]: 10 mm
4 | Cc1nnc(SCC2=C(C(=O)O)N3C(=O)[C@@H](NC(=O)Cn4cnnn4)[C@H]3SC2)s1 [Cephazolin] | + (+ = inhibition zone, diameter 1 to 11 mm) |  | 
5 | O=C(N[C@H](CO)[C@H](O)c1ccc([N+](=O)[O-])cc1)C(Cl)Cl [Chloramphenicol] | +++ (+++ = inhibition zone, diameter larger than 17 mm) |  | zone of inhibition at 30 µg/disc [2, 6]: 28 mm
6 | O=C(O)c1cn(C2CC2)c2cc(N3CCNCC3)c(F)cc2c1=O [Ciprofloxzcin] | +++ (+++ = inhibition zone, diameter larger than 17 mm) |  | 
7 | Cc1onc(-c2ccccc2Cl)c1C(=O)N[C@@H]1C(=O)N2[C@@H]1SC(C)(C)[C@@H]2C(=O)O [Cloxacillin] | − | resistant | 
8 | CC[C@H]1OC(=O)[C@H](C)[C@@H](O[C@H]2C[C@@](C)(OC)[C@@H](O)[C@H](C)O2)[C@H](C)[C@@H](O[C@@H]2O[C@H](C)C[C@H](N(C)C)[C@H]2O)[C@](C)(O)C[C@@H](C)C(=O)[C@H](C)[C@@H](O)[C@]1(C)O [Erythromycin] | +++ (+++ = inhibition zone, diameter larger than 17 mm) |  | Diameter of inhibition zones [2]: No zone
9 | CC(C)Cc1ccc(C(C)C(=O)O)cc1 (stereo not shown) [Ibuprofen] |  |  | Inhibition zone of medicament on Strain ST4SA (strain ST4SA [3]): ++ (++ = diameters between 12 mm and 16 mm)
10 | COc1cccc(OC)c1C(=O)N[C@@H]1C(=O)N2[C@@H]1SC(C)(C)[C@@H]2C(=O)O [Methicillin] | − | resistant | 
11 | Cc1ncc([N+](=O)[O-])n1CCO [Metronidazole] | − | resistant | Decrease of cell numbers of strain ST4SA (strain ST4SA [4]): four; Number of viable cells of strain ST4SA (strain ST4SA [4]; Metronidazole 50 mg): 1.3 × 10^4; Number of viable cells of strain ST4SA (strain ST4SA [4]; Metronidazole 100 mg): 6 × 10^4; Number of viable cells of strain ST4SA (strain ST4SA [4]; Metronidazole 200 mg): 3 × 10^4
12 | CO[C@@H]1[C@@H](OC(N)=O)[C@@H](O)[C@H](Oc2ccc3c(O)c(NC(=O)c4ccc(O)c(CC=C(C)C)c4)c(=O)oc3c2C)OC1(C)C [Novobiocin] | +++ (+++ = inhibition zone, diameter larger than 17 mm) |  | 
13 | C[C@@H]1[C@H](O)[C@@H](C)/C=C/C=C/CC/C=C/C=C/C=C/C=C/C(O[C@H]2O[C@H](C)[C@@H](O)[C@H](N)[C@@H]2O)CC2O[C@](O)(CC(O)C(O)CCC(O)CC(O)CC(O)CC(=O)O[C@H]1C)CC(O)C2C(=O)O (stereo partly shown) [Nystatin] | − | resistant | 
14 | CC1COc2c(N3CCN(C)CC3)c(F)cc3c(=O)c(C(=O)O)cn1c23 (stereo not shown) [Oflaxacin] | ++ (++ = inhibition zone, diameter 12 to 16 mm) |  | 
15 | Cc1onc(-c2ccccc2)c1C(=O)N[C@@H]1C(=O)N2[C@@H]1SC(C)(C)[C@@H]2C(=O)O [Oxacillin] | − | resistant | 
16 | CO[C@H]1/C=C/O[C@@]2(C)Oc3c(C)c(O)c4c(O)c(c(/C=N/N5CCN(C)CC5)c(O)c4c3C2=O)NC(=O)/C(C)=C\C=C\[C@H](C)[C@H](O)[C@@H](C)[C@@H](O)[C@@H](C)[C@H](OC(C)=O)[C@@H]1C [Rifampicin] | +++ (+++ = inhibition zone, diameter larger than 17 mm) |  | 
17 | [H]/N=C(/N)N[C@H]1[C@H](O)[C@@H](O)[C@H](O[C@@H]2O[C@@H](C)[C@](O)(C=O)[C@H]2O[C@@H]2O[C@@H](CO)[C@H](O)[C@@H](O)[C@@H]2NC)[C@@H](N/C(N)=N\[H])[C@@H]1O [Streptomycin] | − | resistant | 
18 | CN(C)[C@@H]1C(O)=C(C(N)=O)C(=O)[C@@]2(O)C(O)=C3C(=O)c4c(O)cccc4[C@@](C)(O)[C@H]3C[C@@H]12 [Tetracycline] | +++ (+++ = inhibition zone, diameter larger than 17 mm) |  | zone of inhibition at 30 µg/disc [2, 6]: 35 mm
19 | CN[C@H](CC(C)C)C(=O)N[C@H]1C(=O)N[C@@H](CC(N)=O)C(=O)N[C@H]2C(=O)N[C@H]3C(=O)N[C@H](C(=O)N[C@H](C(=O)O)c4cc(O)cc(O)c4-c4cc3ccc4O)[C@H](O)c3ccc(c(Cl)c3)Oc3cc2cc(c3O[C@@H]2O[C@H](CO)[C@@H](O)[C@H](O)[C@H]2O[C@H]2C[C@](C)(N)[C@H](O)[C@H](C)O2)Oc2ccc(cc2Cl)[C@H]1O [Vancomycin] | ++ (++ = inhibition zone, diameter 12 to 16 mm) |  | 
20 | Neomycin | − | resistant | 
21 | Nisin [reference compound] |  |  | Effect on target cells after blocking Lipid II with vancomycin [5]: prevented the binding of Nisin to the Lipid II target site
22 | Penicillin | +++ (+++ = inhibition zone, diameter larger than 17 mm) |  | 
23 | Trimethoprim-sulfamethoxazole [TMP-SMX] |  |  | Decrease of cell numbers of strain ST4SA (strain ST4SA [4]): four; Number of viable cells of strain ST4SA (strain ST4SA [4]; TMP-SMX 20/100 mg): 7 × 10^4; Number of viable cells of strain ST4SA (strain ST4SA [4]; TMP-SMX 40/200 mg): 8 × 10^4; Number of viable cells of strain ST4SA (strain ST4SA [4]; TMP-SMX 60/300 mg): 8 × 10^4; Number of viable cells of strain ST4SA (strain ST4SA [4]; TMP-SMX 80/400 mg): 1.8 × 10^4
